Experimental data as given in patent US20230000870A1, “METHODS OF TREATING CANCER IN BIOMARKER-IDENTIFIED PATIENTS WITH INHIBITORS OF CYCLIN-DEPENDENT KINASE 7 (CDK7)” (Syros Pharmaceuticals, Inc., priority 2019, published 2023).

Assays:
[1] = molecular target: CDK2/Cyclin E1 complex (Homo sapiens, UniProt P24941); experiment: CDK2 kinase inhibition assay (Caliper/LabChip EZ Reader); format: biochemical; conditions: CDK2/Cyclin E1 0.5 nM, ATP 2 mM, 35 min at 27° C.
Summary of the method: (§1)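 Incubation times were set for ~20% (±5%) peptide phosphorylation by uninhibited enzyme: CDK7 35 min, CDK2 35 min (0.5 nM complex, 2 μM 5-FAM-CDK7tide, 2 mM MgCl2), CDK12 3 hr (50 nM, 2 μM 5-FAM-CDK9tide, 2 mM MgCl2), CDK9 15 min (8 nM, 2 μM 5-FAM-CDK9tide, 10 mM MgCl2). Read-out on LabChip EZ Reader, 27° C.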

[2] = molecular target: CDK7/Cyclin H/MAT1 complex (Homo sapiens, UniProt P50613); experiment: CDK7 kinase inhibition assay (Caliper/LabChip EZ Reader); format: biochemical; conditions: CDK7/Cyclin H/MAT1 6 nM, ATP 2 mM, 35 min at 27° C.
Summary of the method: as §1

[3] = molecular target: CDK9/Cyclin T1 complex (Homo sapiens, UniProt P50750); experiment: CDK9 kinase inhibition assay (Caliper/LabChip EZ Reader); format: biochemical; conditions: CDK9/Cyclin T1 8 nM, ATP 2 mM, 15 min at 27° C.
Summary of the method: as §1

[4] = molecular target: T1, CDK12 (aa686-1082)/Cyclin K complex (Homo sapiens, UniProt Q9NYV4); experiment: CDK12 kinase inhibition assay (Caliper/LabChip EZ Reader); format: biochemical; conditions: CDK12 (aa686-1082)/Cyclin K 50 nM, ATP 2 mM, 3 hr at 27° C.
T1 construct: CDK12 (aa686-1082)/Cyclin K complex
Summary of the method: as §1

[5] = test system: A673 cells; experiment: Inhibition of proliferation of A673 cells (CyQUANT, 72 hour); format: cell-based, human; conditions: read-out: Inhibition of Proliferation of A673 Cells (calculated IC50)
Summary of the method: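 Read-out is CyQUANT after a 72 h proliferation period, following the kit protocol. Dilution series in 0.5-log steps over the stated 4 μM to […] range. Cells are A673 (human Ewing's sarcoma), grown in DMEM with 10% FBS and 1 mM sodium pyruvate at 37 °C under 5% CO2.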

T1 sequence (Q9NYV4 686-1082): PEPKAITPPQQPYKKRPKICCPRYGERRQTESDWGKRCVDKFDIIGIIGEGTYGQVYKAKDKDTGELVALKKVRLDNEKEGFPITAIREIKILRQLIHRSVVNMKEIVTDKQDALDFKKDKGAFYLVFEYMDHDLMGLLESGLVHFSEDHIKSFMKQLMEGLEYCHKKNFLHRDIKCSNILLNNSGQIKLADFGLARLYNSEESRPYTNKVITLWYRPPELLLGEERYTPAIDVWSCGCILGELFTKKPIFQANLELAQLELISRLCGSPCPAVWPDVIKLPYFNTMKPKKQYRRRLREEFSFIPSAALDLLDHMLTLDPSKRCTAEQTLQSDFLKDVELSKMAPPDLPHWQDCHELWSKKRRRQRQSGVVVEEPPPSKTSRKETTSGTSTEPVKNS
T1 sequence (O75909 whole entry partner, the tested form may be a part): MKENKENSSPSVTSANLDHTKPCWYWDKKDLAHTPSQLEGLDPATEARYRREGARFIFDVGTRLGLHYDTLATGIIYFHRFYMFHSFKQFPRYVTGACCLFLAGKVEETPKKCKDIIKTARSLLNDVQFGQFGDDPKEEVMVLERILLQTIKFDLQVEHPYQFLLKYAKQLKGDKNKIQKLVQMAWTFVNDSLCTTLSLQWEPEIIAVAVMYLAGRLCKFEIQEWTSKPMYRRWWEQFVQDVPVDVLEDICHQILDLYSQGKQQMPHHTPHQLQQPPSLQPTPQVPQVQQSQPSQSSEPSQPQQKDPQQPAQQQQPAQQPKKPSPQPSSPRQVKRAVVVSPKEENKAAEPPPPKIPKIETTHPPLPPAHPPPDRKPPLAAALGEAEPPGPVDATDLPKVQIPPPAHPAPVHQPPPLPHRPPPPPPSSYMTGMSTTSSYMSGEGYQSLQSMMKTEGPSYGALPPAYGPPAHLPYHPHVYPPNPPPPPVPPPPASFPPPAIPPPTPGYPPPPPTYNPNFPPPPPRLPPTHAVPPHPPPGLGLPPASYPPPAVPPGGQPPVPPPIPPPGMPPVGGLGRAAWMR
Chain of CDK7/Cyclin H/MAT1 complex (P50613 whole entry): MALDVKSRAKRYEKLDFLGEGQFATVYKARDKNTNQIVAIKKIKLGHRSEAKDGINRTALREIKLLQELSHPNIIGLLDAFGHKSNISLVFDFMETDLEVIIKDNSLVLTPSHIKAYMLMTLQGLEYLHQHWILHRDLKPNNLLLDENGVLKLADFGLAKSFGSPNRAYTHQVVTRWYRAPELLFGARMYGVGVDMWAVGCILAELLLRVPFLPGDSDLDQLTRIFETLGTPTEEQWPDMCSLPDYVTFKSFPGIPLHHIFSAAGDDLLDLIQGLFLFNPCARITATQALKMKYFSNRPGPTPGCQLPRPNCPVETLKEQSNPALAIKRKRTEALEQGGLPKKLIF
Chain of CDK7/Cyclin H/MAT1 complex (P51946 whole entry partner): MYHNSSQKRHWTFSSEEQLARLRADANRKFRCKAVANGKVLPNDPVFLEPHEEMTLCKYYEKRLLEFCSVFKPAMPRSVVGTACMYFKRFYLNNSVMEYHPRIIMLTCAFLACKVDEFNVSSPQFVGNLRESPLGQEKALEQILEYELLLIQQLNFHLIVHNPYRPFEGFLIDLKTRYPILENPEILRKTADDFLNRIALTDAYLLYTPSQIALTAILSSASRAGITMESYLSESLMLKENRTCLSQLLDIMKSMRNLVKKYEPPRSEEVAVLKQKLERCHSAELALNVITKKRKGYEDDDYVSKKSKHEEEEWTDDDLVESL
Chain of CDK7/Cyclin H/MAT1 complex (P51948 whole entry partner): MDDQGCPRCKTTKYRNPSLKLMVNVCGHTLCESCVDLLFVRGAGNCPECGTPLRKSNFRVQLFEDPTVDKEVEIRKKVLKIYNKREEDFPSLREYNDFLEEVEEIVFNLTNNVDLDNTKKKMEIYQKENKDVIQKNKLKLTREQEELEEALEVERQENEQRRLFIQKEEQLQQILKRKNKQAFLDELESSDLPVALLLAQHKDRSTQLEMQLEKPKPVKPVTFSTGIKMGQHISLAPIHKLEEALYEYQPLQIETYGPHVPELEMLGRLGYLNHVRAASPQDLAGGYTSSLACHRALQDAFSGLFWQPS
Chain of CDK9/Cyclin T1 complex (P50750 whole entry): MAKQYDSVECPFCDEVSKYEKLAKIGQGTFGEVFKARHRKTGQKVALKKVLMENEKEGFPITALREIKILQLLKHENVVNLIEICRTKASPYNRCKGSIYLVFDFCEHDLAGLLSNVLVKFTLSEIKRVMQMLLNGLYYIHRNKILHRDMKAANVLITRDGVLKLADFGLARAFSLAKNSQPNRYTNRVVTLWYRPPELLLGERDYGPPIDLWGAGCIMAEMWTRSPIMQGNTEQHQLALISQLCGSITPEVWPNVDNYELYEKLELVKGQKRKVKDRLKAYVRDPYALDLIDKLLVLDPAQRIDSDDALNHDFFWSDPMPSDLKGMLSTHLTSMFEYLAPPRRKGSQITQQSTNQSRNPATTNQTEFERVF
Chain of CDK9/Cyclin T1 complex (O60563 whole entry partner): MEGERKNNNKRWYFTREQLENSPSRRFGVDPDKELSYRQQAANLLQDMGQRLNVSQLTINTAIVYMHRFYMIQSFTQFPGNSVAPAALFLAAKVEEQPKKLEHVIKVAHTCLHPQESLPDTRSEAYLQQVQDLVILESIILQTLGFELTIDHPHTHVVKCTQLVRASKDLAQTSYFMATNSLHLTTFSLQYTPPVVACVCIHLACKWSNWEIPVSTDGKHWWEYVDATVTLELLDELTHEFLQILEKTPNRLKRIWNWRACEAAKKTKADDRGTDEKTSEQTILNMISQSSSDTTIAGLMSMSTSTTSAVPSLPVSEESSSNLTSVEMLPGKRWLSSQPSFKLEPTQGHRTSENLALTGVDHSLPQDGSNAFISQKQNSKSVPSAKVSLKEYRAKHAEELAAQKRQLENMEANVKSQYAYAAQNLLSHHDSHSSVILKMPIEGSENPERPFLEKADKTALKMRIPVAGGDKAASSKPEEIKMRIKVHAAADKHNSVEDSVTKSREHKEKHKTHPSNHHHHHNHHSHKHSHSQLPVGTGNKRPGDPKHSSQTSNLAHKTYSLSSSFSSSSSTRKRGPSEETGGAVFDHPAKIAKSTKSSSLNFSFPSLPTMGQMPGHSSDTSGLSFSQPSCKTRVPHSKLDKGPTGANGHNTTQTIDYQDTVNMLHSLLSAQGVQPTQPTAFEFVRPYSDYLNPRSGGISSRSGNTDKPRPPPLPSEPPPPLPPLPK

Structure (SMILES)	IC50 [1] [nM]	IC50 [2] [nM]	IC50 [3] [nM]	IC50 [4] [nM]	IC50 [5] [nM]
Clc1cnc(N[C@H]2CCCNC2)nc1-c1n[nH]c2ccccc12 [Compound 174]	200 to 5000	< 20	200 to 5000	200 to 5000	20 to 200
FCCc1cnc(NC2CCCNC2)nc1-c1c[nH]c2ccccc12 (stereo not shown) [Compound 206]	≥ 5000	20 to 200	200 to 5000	200 to 5000	200 to 5000
Cc1nc(-c2ccc3c(-c4nc(NC5CCCNC5)ncc4C(F)(F)F)c[nH]c3c2)n[nH]1 (stereo not shown) [Compound 235]	200 to 5000	< 20	200 to 5000	200 to 5000	200 to 5000
CCCCCc1ccc2c(-c3nc(N[C@@H]4CCCNC4)ncc3C(F)(F)F)c[nH]c2c1 [Compound 241]	200 to 5000	20 to 200	200 to 5000	200 to 5000	20 to 200
Clc1cnc(NC2CCCNC2)nc1-c1c[nH]c2ccncc12 (stereo not shown) [Compound 117]	200 to 5000	20 to 200	200 to 5000	200 to 5000	20 to 200
Ic1cnc(NC2CCCNC2)nc1-c1c[nH]c2ccccc12 (stereo not shown) [Compound 147]	20 to 200	< 20	200 to 5000	200 to 5000	< 20
Clc1cnc(NC2CN3CCC2CC3)nc1-c1c[nH]c2ccccc12 (stereo not shown) [Compound 131]	≥ 5000	≥ 5000	≥ 5000	≥ 5000	200 to 5000
Fc1cc2[nH]nc(-c3nc(NC4CCCNC4)ncc3C(F)(F)F)c2cc1F (stereo not shown) [Compound 152]	200 to 5000	< 20	200 to 5000	200 to 5000	< 20
CC(C)(O)CCc1cccc2c(-c3nc(NC4CCCNC4)ncc3C(F)(F)F)c[nH]c12 (stereo not shown) [Compound 191]	200 to 5000	< 20	200 to 5000	200 to 5000	< 20
C=Cc1cnc(NC2CCCNC2)nc1-c1c[nH]c2ccccc12 (stereo not shown) [Compound 218]	200 to 5000	< 20	200 to 5000	200 to 5000	20 to 200
O=C(c1ccc2c(-c3nc(N[C@H]4CCCNC4)ncc3C(F)(F)F)c[nH]c2c1)N1CC[C@@H](O)C1 [Compound 205]	≥ 5000	< 20	≥ 5000	200 to 5000	200 to 5000
CCc1cnc(N[C@H]2CCCNC2)nc1-c1c[nH]c2c(C)cccc12 [Compound 137]	200 to 5000	< 20	200 to 5000	200 to 5000	20 to 200
COCCn1cc(-c2nc(NC3CCCNC3)ncc2Cl)c2ccccc21 (stereo not shown) [Compound 122]	≥ 5000	200 to 5000	200 to 5000	≥ 5000	200 to 5000
CNC(=O)c1ccc2c(-c3nc(NC4CCCNC4)ncc3C(F)(F)F)c[nH]c2c1 (stereo not shown) [Compound 186]	200 to 5000	< 20	200 to 5000	200 to 5000	20 to 200
Clc1cnc(NC2CCCNC2)nc1-c1cn(-c2ccccc2)c2ccccc12 (stereo not shown) [Compound 132]	≥ 5000	200 to 5000	200 to 5000	≥ 5000	200 to 5000
Clc1cnc(NC2CCCNC2)nc1-c1c[nH]c2ccc(N3CCOCC3)cc12 (stereo not shown) [Compound 151]	≥ 5000	200 to 5000	≥ 5000	≥ 5000	20 to 200
CCc1cnc(NC2CCCNC2)nc1-c1c[nH]c2ncc(F)cc12 (stereo not shown) [Compound 231]	≥ 5000	≥ 5000	≥ 5000	≥ 5000	200 to 5000
CC1(Nc2ncc(Cl)c(-c3c[nH]c4ccccc34)n2)CCCNC1 (stereo not shown) [Compound 115]	≥ 5000	200 to 5000	≥ 5000	≥ 5000	200 to 5000
c1ccc2c(-c3nc(NC4CCCNC4)ncc3C3CC3)c[nH]c2c1 (stereo not shown) [Compound 135]	≥ 5000	20 to 200	≥ 5000	≥ 5000	200 to 5000
CC(=O)c1cnc(NC2CCCNC2)nc1-c1c[nH]c2ccccc12 (stereo not shown) [Compound 208]	≥ 5000	20 to 200	≥ 5000	200 to 5000	20 to 200
Cc1cccc2c(-c3nc(NC4CCCNC4)ncc3C(F)(F)F)c[nH]c12 (stereo not shown) [Compound 124]	200 to 5000	< 20	200 to 5000	20 to 200	< 20

Structure (SMILES)	IC50 [1] [nM]	IC50 [2] [nM]	IC50 [3] [nM]	IC50 [4] [nM]	IC50 [5] [nM]
FC(F)(F)c1cnc(N[C@H]2CCCNC2)nc1-c1c[nH]c2ccc(-c3ccnnc3)cc12 [Compound 230]	200 to 5000	< 20	200 to 5000	200 to 5000	20 to 200
CC1(C)CNC[C@@H](Nc2ncc(C(F)(F)F)c(-c3c[nH]c4ccccc34)n2)C1 [Compound 243]	200 to 5000	< 20	200 to 5000	20 to 200	< 20
Cc1[nH]c2ccccc2c1-c1nc(NC2CCCNC2)ncc1Cl (stereo not shown) [Compound 106]	≥ 5000	20 to 200	200 to 5000	200 to 5000	20 to 200
FC(F)(F)c1cnc(NC2CCCNC2)nc1-c1c[nH]c2cc(-c3ncc[nH]3)ccc12 (stereo not shown) [Compound 202]	200 to 5000	< 20	200 to 5000	≥ 5000	20 to 200
FC(F)(F)c1cnc(NC2CCCNC2)nc1-c1c[nH]c2c(Cl)cccc12 (stereo not shown) [Compound 167]	200 to 5000	< 20	200 to 5000	20 to 200	< 20
CC(O)c1cnc(NC2CCCNC2)nc1-c1c[nH]c2ccccc12 (stereo not shown) [Compound 238]	≥ 5000	200 to 5000	≥ 5000	≥ 5000	200 to 5000
Fc1cc2[nH]cc(-c3nc(NC4CCCNC4)ncc3Cl)c2cc1F (stereo not shown) [Compound 111]	200 to 5000	< 20	20 to 200	20 to 200	20 to 200
FC(F)(F)c1cnc(N[C@H]2CCCNC2)nc1-c1c[nH]c2ccc(Cl)cc12 [Compound 160]	200 to 5000	< 20	200 to 5000	200 to 5000	< 20
CC1NCCCC1Nc1ncc(Cl)c(-c2c[nH]c3ccccc23)n1 (stereo not shown) [Compound 114]	200 to 5000	20 to 200	200 to 5000	200 to 5000	20 to 200
Cc1n[nH]cc1-c1ccc2[nH]cc(-c3nc(NC4CCCNC4)ncc3C(F)(F)F)c2c1 (stereo not shown) [Compound 229]	200 to 5000	< 20	200 to 5000	200 to 5000	< 20
CCc1cnc(NC2CCCNC2)nc1-c1n[nH]c2cc(C#N)ccc12 (stereo not shown) [Compound 275]	200 to 5000	< 20	200 to 5000	200 to 5000	20 to 200
CCOP(=O)(OCC)c1ccc2[nH]cc(-c3nc(NC4CCCNC4)ncc3C(F)(F)F)c2c1 (stereo not shown) [Compound 183]	200 to 5000	20 to 200	200 to 5000	≥ 5000	200 to 5000
N#Cc1cnc(NC2CCCNC2)nc1-c1c[nH]c2ccccc12 (stereo not shown) [Compound 157]	200 to 5000	< 20	200 to 5000	200 to 5000	< 20
CS(=O)(=O)Cc1ccc2c(-c3nc(NC4CCCNC4)ncc3C(F)(F)F)c[nH]c2c1 (stereo not shown) [Compound 219]	200 to 5000	< 20	200 to 5000	200 to 5000	20 to 200
Cc1cccc2c(-c3nc(NC4CCCNC4)ncc3CC(C)C)c[nH]c12 (stereo not shown) [Compound 140]	≥ 5000	200 to 5000	≥ 5000	≥ 5000	200 to 5000
O=S1(=O)CCN(c2cccc3c(-c4nc(NC5CCCNC5)ncc4Cl)c[nH]c23)CC1 (stereo not shown) [Compound 196]	200 to 5000	< 20	200 to 5000	200 to 5000	20 to 200
CCC(=O)NC1CNCC(Nc2ncc(C(F)(F)F)c(-c3c[nH]c4c(S(C)(=O)=O)cccc34)n2)C1 (stereo not shown) [Compound 259]	200 to 5000	< 20	200 to 5000	200 to 5000	20 to 200
CCc1cnc(NC2CCCNC2)nc1-c1n[nH]c2ncccc12 (stereo not shown) [Compound 262]	200 to 5000	< 20	200 to 5000	200 to 5000	20 to 200
COCCn1cc(-c2nc(NC3CCCNC3)ncc2C(F)(F)F)c2ccccc21 (stereo not shown) [Compound 123]	≥ 5000	20 to 200	200 to 5000	≥ 5000	200 to 5000
CC(C)CN1CCCC(Nc2ncc(Cl)c(-c3c[nH]c4ccccc34)n2)C1 (stereo not shown) [Compound 145]	≥ 5000	20 to 200	≥ 5000	200 to 5000	200 to 5000
